# Values joined by “and” are separate entries in the source; they are usually repeats but may differ in a detail not shown here. Identical values can stand only once. Like-named read-outs stand apart in the source and are kept apart here.
# System: healthy elderly subjects
# [1] = 15 mg HTL0018318 + donepezil vs Placebo
# [2] = 15 mg HTL0018318 alone vs 15 mg HTL0018318 donepezil
# [3] = 15 mg HTL0018318 alone vs Placebo
# [4] = 15 mg and 25 mg, in combination with or without donepezil
# [5] = 15 mg in combination with donepezil
# [6] = 15 mg in combination with donepezil (5 days)
# [7] = 15 mg without donepezil (5 days)
# [8] = 25 mg HTL0018318 + donepezil vs Placebo
# [9] = 25 mg HTL0018318 alone vs 25 mg HTL0018318 donepezil
# [10] = 25 mg HTL0018318 alone vs Placebo
# [11] = 25 mg in combination with donepezil
# [12] = 25 mg in combination with donepezil (5 days)
# [13] = 25 mg without donepezil (5 days)
# [14] = 25 mg without donepezil vs in combination with donepezil
smiles,measurement,setting,value
"CCOC(=O)N1C2CCC1CC(N1CCC3(CC1)CNC(=O)C3)C2 (stereo not shown) [HTL0018318, ethyl 3-(3-oxo-2,8-diazaspiro[4.5]dec-8-yl)-8-azabicyclo[3.2.1]octane-8-carboxylate]","FEV1/FVC, contrast estimate",[1],1.052%
same,"FEV 1 second, contrast estimate",[1],0.043 L
same,"FVC, contrast estimate",[1],0.03719 L
same,"LSEQ: Awake following sleep, contrast estimate",[1],3.50
same,"LSEQ: Behaviour after wake, contrast estimate",[1],1.51
same,"LSEQ: Getting to sleep, contrast estimate",[1],1.59
same,"LSEQ: Quality of sleep, contrast estimate",[1],2.42
same,"PEF, contrast estimate",[1],0.339 L/s
same,"Saliva, contrast estimate",[1],0.707 g
same,"VAS Alertness, contrast estimate",[1],−0.70 mm
same,"VAS Calmness, contrast estimate",[1],−2.37 mm
same,"VAS Mood, contrast estimate",[1],−0.24 mm
same,"VAS Nausea, contrast estimate",[1],−0.08 log(mm)
same,"FEV1/FVC, contrast estimate",[2],−0.886%
same,"FEV 1 second, contrast estimate",[2],0.127 L
same,"FVC, contrast estimate",[2],0.1702 L
same,"LSEQ: Awake following sleep, contrast estimate",[2],−1.93
same,"LSEQ: Behaviour after wake, contrast estimate",[2],−0.85
same,"LSEQ: Getting to sleep, contrast estimate",[2],−0.79
same,"LSEQ: Quality of sleep, contrast estimate",[2],−0.26
same,"PEF, contrast estimate",[2],-0.343 L/s
same,"Saliva, contrast estimate",[2],-0.554 g
same,"VAS Alertness, contrast estimate",[2],−0.46 mm
same,"VAS Calmness, contrast estimate",[2],−0.20 mm
same,"VAS Mood, contrast estimate",[2],−0.03 mm
same,"VAS Nausea, contrast estimate",[2],−0.01 log(mm)
same,"FEV1/FVC, contrast estimate",[3],−0.327%
same,"FEV 1 second, contrast estimate",[3],0.153 L
same,"FVC, contrast estimate",[3],0.2035 L
same,"LSEQ: Awake following sleep, contrast estimate",[3],−1.72
same,"LSEQ: Behaviour after wake, contrast estimate",[3],−1.00
same,"LSEQ: Getting to sleep, contrast estimate",[3],0.82
same,"LSEQ: Quality of sleep, contrast estimate",[3],−5.14
same,"PEF, contrast estimate",[3],0.282 L/s
same,"Saliva, contrast estimate",[3],0.498 g
same,"VAS Alertness, contrast estimate",[3],−1.96 mm
same,"VAS Calmness, contrast estimate",[3],−3.17 mm
same,"VAS Mood, contrast estimate",[3],−2.93 mm
same,"VAS Nausea, contrast estimate",[3],−0.06 log(mm)
same,"number of AEs in gastrointestinal disorders class, viral gastroenteritis AEs excluded",15 mg alone,1 AE
same,supine pulse rate compared with placebo,[4],no significant effects
same,supine systolic blood pressure compared with placebo,[4],no significant effects
same,"cholinergic AEs, percentage of subjects",[5],13%
same,"nausea reports, viral gastroenteritis AEs excluded",[5],one subject
same,supine pulse rate,[5],64 bpm
same,"All AEs, percentage of subjects",[6],50% ( 4/8 subjects)
same,"Gastrointestinal disorders, percentage of subjects",[6],13% (⅛ subjects)
same,"Neurological disorders, percentage of subjects",[6],13% (⅛ subjects)
same,"supine pulse rate, mean difference",15 mg in combination with donepezil vs without donepezil,3.3 bpm
same,"cholinergic AEs, percentage of subjects",15 mg without donepezil,0%
same,supine pulse rate,15 mg without donepezil,67 bpm
same,"All AEs, percentage of subjects",[7],43% ( 3/7 subjects)
same,"Gastrointestinal disorders, percentage of subjects",[7],14% ( 1/7 subjects)
same,"Neurological disorders, percentage of subjects",[7],14% ( 1/7 subjects)
same,delta pulse rate,15 mg without donepezil vs in combination with donepezil,no significant changes
same,"number of AEs in gastrointestinal disorders class, viral gastroenteritis AEs excluded",15 mg+donepezil,3 AEs
same,"FEV1/FVC, contrast estimate",[8],−0.399%
same,"FEV 1 second, contrast estimate",[8],0.085 L
same,"FVC, contrast estimate",[8],0.1784 L
same,"LSEQ: Awake following sleep, contrast estimate",[8],0.52
same,"LSEQ: Behaviour after wake, contrast estimate",[8],−0.80
same,"LSEQ: Getting to sleep, contrast estimate",[8],−0.74
same,"LSEQ: Quality of sleep, contrast estimate",[8],−1.37
same,"PEF, contrast estimate",[8],0.273 L/s
same,"Saliva, contrast estimate",[8],0.910 g
same,"VAS Alertness, contrast estimate",[8],−1.49 mm
same,"VAS Calmness, contrast estimate",[8],−1.67 mm
same,"VAS Mood, contrast estimate",[8],−0.38 mm
same,"VAS Nausea, contrast estimate",[8],−0.04 log(mm)
same,"FEV1/FVC, contrast estimate",[9],2.491%
same,"FEV 1 second, contrast estimate",[9],0.008 L
same,"FVC, contrast estimate",[9],-.11255 L
same,"LSEQ: Awake following sleep, contrast estimate",[9],0.93
same,"LSEQ: Behaviour after wake, contrast estimate",[9],1.86
same,"LSEQ: Getting to sleep, contrast estimate",[9],1.72
same,"LSEQ: Quality of sleep, contrast estimate",[9],6.49
same,"PEF, contrast estimate",[9],0.047 L/s
same,"Saliva, contrast estimate",[9],-0.349 g
same,"VAS Alertness, contrast estimate",[9],0.66 mm
same,"VAS Calmness, contrast estimate",[9],−0.07 mm
same,"VAS Mood, contrast estimate",[9],0.55 mm
same,"VAS Nausea, contrast estimate",[9],−0.03 log(mm)
same,"FEV1/FVC, contrast estimate",[10],1.600%
same,"FEV 1 second, contrast estimate",[10],0.077 L
same,"FVC, contrast estimate",[10],0.06192 L
same,"LSEQ: Awake following sleep, contrast estimate",[10],−1.85
same,"LSEQ: Behaviour after wake, contrast estimate",[10],−0.60
same,"LSEQ: Getting to sleep, contrast estimate",[10],1.01
same,"LSEQ: Quality of sleep, contrast estimate",[10],−2.18
same,"PEF, contrast estimate",[10],0.606 L/s
same,"Saliva, contrast estimate",[10],0.906 g
same,"VAS Alertness, contrast estimate",[10],−1.63 mm
same,"VAS Calmness, contrast estimate",[10],−2.34 mm
same,"VAS Mood, contrast estimate",[10],−2.49 mm
same,"VAS Nausea, contrast estimate",[10],−0.05 log(mm)
same,"number of AEs in gastrointestinal disorders class, viral gastroenteritis AEs excluded",25 mg alone,3 AEs
same,"cholinergic AEs, percentage of subjects",[11],69%
same,delta pulse rate (standing from supine),[11],12 bpm and 10 bpm
same,supine pulse rate,[11],64 bpm
same,supine systolic blood pressure,[11],120 mm Hg
same,"All AEs, percentage of subjects",[12],88% ( 14/16 subjects)
same,"Gastrointestinal disorders, percentage of subjects",[12],25% ( 4/16 subjects)
same,"Neurological disorders, percentage of subjects",[12],38% ( 6/16 subjects)
same,"delta pulse rate, mean difference",25 mg in combination with donepezil vs placebo in combination with donepezil,−3.4 bpm
same,"supine pulse rate, mean difference",25 mg in combination with donepezil vs without donepezil,1.5 bpm
same,"cholinergic AEs, percentage of subjects",25 mg without donepezil,67%
same,delta pulse rate (standing from supine),25 mg without donepezil,10 bpm and 12 bpm
same,supine pulse rate,25 mg without donepezil,66 bpm
same,supine systolic blood pressure,25 mg without donepezil,118 mm Hg
same,"All AEs, percentage of subjects",[13],92% ( 11/12 subjects)
same,"Gastrointestinal disorders, percentage of subjects",[13],17% ( 2/12 subjects)
same,"Neurological disorders, percentage of subjects",[13],50% ( 6/12 subjects)
same,"delta pulse rate, mean difference",[14],−1.6 bpm
same,"supine systolic blood pressure, mean difference",[14],1.6 mm Hg
same,"delta pulse rate, mean difference",25 mg without donepezil vs placebo without donepezil,−3.7 bpm
same,"number of AEs in gastrointestinal disorders class, viral gastroenteritis AEs excluded",25 mg+donepezil,4 AEs
same,"laboratory tests, ECG assessment and 24-hour Holter ECG","15 or 25 mg, with and without donepezil",No clinically significant changes
same,"standing systolic BP, supine and standing diastolic BP, standing-supine BP, standing pulse rate",HTL0018318 in combination with donepezil vs HTL0018318 alone,no significant changes
same,"VAS alertness, calmness, mood, and nausea",HTL0018318 in combination with donepezil vs without donepezil,no statistically significant effects
same,intensity and seriousness of AEs,all treatments of the study,mild or moderate in intensity and there were no serious adverse events
same,tolerability,multiple doses in combination with donepezil,generally well tolerated
